Reference: patent US6949558B2, “Enhancement of taxane-based chemotherapy by a CDK1 antagonist” (Yale University, priority 2001, dated 2005)

Tests used:
survivin promoter = test: Survivin promoter-luciferase reporter expression in MCF-7 cells; assay type: cell-based, human; details: taxol 2 μM, all time intervals examined
Protocol: Luciferase activity was determined after 0-24 h incubation at 37° C. on a Lumat luminometer (LB9510), and normalized to β-galactosidase activity used as an internal control.
Luciferase values were normalized to β-galactosidase expression.

HT2-19 cells = test: Apoptosis and cell cycle in HT2-19 cells with conditional inactivation of p34^cdc2; assay type: cell-based; details: taxol 0.2 μM
Excerpt: (§1) Cell Cultures and Antibodies: Breast carcinoma MCF-7, prostate carcinoma PC3, and cervical carcinoma HeLa cells (American Type Culture Collection, Manassas, Va.) were maintained in culture according to the supplier's recommendations. HT2-19 cells with conditional inactivation of the p34^cdc2 gene were described previously (J. E. Itzhaki et al. (1997) Nat. Gen. 15: 258-265). In this cell line, removal of IPTG from the culture medium results in inactivation of the second p34^cdc2 allele (J. E. Itzhaki et al. (1997) Nat. Gen. 15: 258-265). For spindle checkpoint activation, the various cell types were treated with taxol (0.2-2 μM, Sigma Chemical Co., St. Louis, Mo.), vincristine (100 nM, Sigma) or cisplatin (3 μM, Sigma) for 16 h at 37° C. For genetic ablation of p34^cdc2, HT2-19 cells were washed and cultivated in the absence of IPTG for 48-72 h before analysis of apoptosis (see below) or expression of survivin or p34^cdc2, by Western blotting. In some experiments, taxol (0.2 μM) was added to HT2-19 cells simultaneously with the withdrawal of IPTG, and cells were processed as described above. […] For viral transduction, HT2-19 cells in the absence of IPTG were infected with pAd-GFP or pAd-Survivin at multiplicity of infection (m.o.i.) of 50, and analyzed after a 48-72 h culture for changes in cell cycle progression and apoptosis. […]

HeLa cells = test: Apoptosis by DNA content analysis and flow cytometry in HeLa cells; assay type: cell-based, human; details: HeLa
Protocol: Cervical carcinoma HeLa (functionally inactivated p53) cells or breast carcinoma MCF-7 (wild type p53) cells were plated at 50-60% confluency in C-6 wells. Cells were treated with taxol at 0.2 μM for 0 to 32 hours in complete media.
(§2) After 4, 8, 16, and 32 hours of incubation, without removing taxol from the wells, purvalanol A was added at three increasing concentrations, 1, 10 and 20 uM (FIG. 1). A control was performed with addition of purvalanol A at the 0-h time point.
(§3) The cell populations were harvested at increasing time intervals from the 0-h time point or corresponding to the addition of purvalanol A. Apoptosis was analyzed by DNA content analysis and flow cytometry (DAPI staining).

MCF-7 tumors = test: Breast cancer xenograft model (Example 8); assay type: in vivo, CB17 SCID/beige mice; details: taxol alone 2.5 or 5 mg/kg, Purvalanol A alone 20 mg/kg, i.p.
Protocol: Breast Cancer Xenograft Model: All experiments involving animals were approved by the institutional animal cure and use committee. Six- to eight-week old female CB17 SCID/beige mice (Taconic Farms, Germantown, N.Y.) were injected s.c. into the flanks with 2.5×10^6 exponentially growing MCF-7 cells in 250 μl of sterile PBS, pH 7.4. […] Animals were injected i.p. with taxol alone (2.5 or 5 mg/kg), Purvalanol A alone (20 mg/kg) or the sequential combination of taxol-Purvalanol A for two consecutive days each divided by a day with no treatment. For single agent treatment, vehicle was given in place of taxol or Purvalanol A with the same schedule. Each complete cycle was separated by 2 d without treatment. Tumor volume was measured in the three dimensions with a caliper. Animals with tumor burden >3000 mm^3 were sacrificed (Survival).
Statistical Analysis: All in vitro experiments were repeated at least three times. […] The survival curves were compared using the log-rank test. This test generates a P value testing the null hypothesis that the survival curves are identical in the overall populations.

caspase-9 = test: Caspase-9 processing by Western blotting in HeLa cells; details: taxol 0.2 μM, Purvalanol A 20 μM or sequential combination, 16 h
[1] = tested on: survivin expression in PC3 cells; test: Survivin expression by Western blotting in PC3 cells; assay type: cell-based; details: taxol
MCF-7 cells = test: Apoptosis by DNA content analysis and flow cytometry in MCF-7 cells; assay type: cell-based, human
Protocol: Cervical carcinoma HeLa (functionally inactivated p53) cells or breast carcinoma MCF-7 (wild type p53) cells were plated at 50-60% confluency in C-6 wells. […]
as §2, §3

[2] = tested on: survivin expression in HT2-19 cells; test: Survivin expression by Western blotting in HT2-19 cells; assay type: cell-based; details: taxol 0.2 μM
Excerpt: as §1

[3] = tested on: p34^cdc2 kinase activity (MPM-2 epitope) in HeLa cells; test: MPM-2 mitotic phosphoepitope expression (p34^cdc2 kinase activity) in HeLa cells; assay type: cell-based, human; details: HeLa; taxol 0.2 μM, sustained for a 32-h culture
[4] = taxol 2 μM, adriamycin 100 nM, cis-platin 3 μM (Example 7)

## CC(=O)O[C@H]1C(=O)[C@@]2(C)[C@H]([C@H](OC(=O)c3ccccc3)[C@]3(O)C[C@H](OC(=O)[C@H](O)[C@@H](NC(=O)c4ccccc4)c4ccccc4)C(C)=C1C3(C)C)[C@]1(OC(C)=O)CO[C@@H]1C[C@@H]2O [taxol, Paclitaxel]
Survivin promoter
  survivin gene expression (promoter-luciferase): significantly inhibited survivin gene expression
HT2-19 cells; HT2-19, p34^cdc2 +/− (IPTG present)
  cell cycle arrest: homogeneous mitotic arrest
HT2-19 cells; IPTG− HT2-19 cells (p34^cdc2 −/−)
  apoptosis vs untreated IPTG− cultures: considerably increased apoptosis
HeLa cells; 16 h, taxol 0.2 μM, Purvalanol A 20 μM, alone or sequential
  cell population with hypodiploid (apoptotic) DNA content / cell death: 16%
HeLa cells; taxol 0.2 μM alone (Example 1)
  hypodiploid cells: ~10%
HeLa cells; taxol 0.2 μM for 0 to 32 hours
  apoptosis (hypodiploid cell fraction): virtually no apoptosis
HeLa cells; taxol 0.2 μM or purvalanol A 1-20 uM alone (Examples 1, 2)
  cell cycle arrest: uniform M arrest
HeLa cells; taxol 0.2 μM, up to 32 h (Example 8)
  apoptosis: negligible induction of apoptosis
MCF-7 tumors
  kinetics of tumor growth: did not affect the kinetics of tumor growth
caspase-9
  caspase-9 processing: did not result in significant caspase-9 cleavage
[1]
  survivin expression: increased expression of survivin
MCF-7 cells; taxol 0.2 μM for 0 to 32 hours
  apoptosis (hypodiploid cell fraction): virtually no apoptosis
  cell cycle arrest: uniform M arrest
MCF-7 cells; [4]
  apoptosis: negligible apoptosis
  cell cycle arrest: G2/M arrest
MCF-7 cells; taxol 0.2-2 μM (Example 8)
  cell cycle arrest: sustained (48-72 h) mitotic arrest
[2]; HT2-19 cells in the absence of IPTG (p34^cdc2 −/−)
  survivin expression: only a minimally detectable increase in survivin expression
[2]; IPTG+ HT2-19 cells (p34^cdc2 +/−)
  survivin levels: increased survivin levels
[3]
  p34^cdc2 kinase activity: elevated p34^cdc2 kinase activity
